The record followed here is patent US12550894B2, “Insecticidal formulation for vector and pest control with increased contact efficacy” (priority 2018, dated 2026).

Holding throughout (experiment): Long term contact efficacy against mosquitos (example 12)
Holding throughout (assay type): in vivo
Conditions in all cases: glazed tiles, 1 day after treatment

In one series the test system is Culex quinque fasciatus. An excerpt:
(§1) Glazed tiles have been treated with the WP 10 formulations as described in example 9 based on 4-[(5S)-5-(3,5-dichloro-4-fluorophenyl)-5-(trifluoromethyl)-4,5-dihydro-1,2-oxazol-3-yl]-N-[(4R)-2-ethyl-3-oxo-1,2-oxazolidin-4-yl]-2-methylbenzamide as described in Example 4 and then stored at ambient conditions. […] The contact bioassays have been conducted as outlined in example 9.

In a further series the test system is Aedes Aegypti.
From the text: as §1

The test system of a further series is Anopheles funestus.
From the text: as §1

Consider `CCN1OC[C@@H](NC(=O)c2ccc(C3=NO[C@@](c4cc(Cl)c(F)c(Cl)c4)(C(F)(F)F)C3)cc2C)C1=O` [Reference crystalline spray, 4-[(5S)-5-(3,5-dichloro-4-fluorophenyl)-5-(trifluoromethyl)-4,5-dihydro-1,2-oxazol-3-yl]-N-[(4R)-2-ethyl-3-oxo-1,2-oxazolidin-4-yl]-2-methylbenzamide], for which the “Mortality [%] Culex quinque fasciatus 24 h” value with Culex quinque fasciatus (0.8 mg a.i./m^2) is on record as 25%; with Culex quinque fasciatus (4 mg a.i./m^2) it was 88%; in the series on Culex quinque fasciatus (20 mg a.i./m^2) it was 100%. Besides, the “Mortality [%] Aedes Aegypti 24 h” value with Aedes Aegypti (0.8 mg a.i./m^2) was found to be 0%; with Aedes Aegypti (4 mg a.i./m^2) it was 89%; in the series with Aedes Aegypti (20 mg a.i./m^2) it was 100%. Besides, the figures for the “Mortality [%] Anopheles funestus 24 h” value in the series with Anopheles funestus (0.8 mg a.i./m^2), in the series on Anopheles funestus (4 mg a.i./m^2) and in the series with Anopheles funestus (20 mg a.i./m^2) were 0%, 30% and 90%, respectively.
